{"source": "patent US11213506B2", "about": "“Combination therapy for the treatment or prevention of tumours” (QBIOTICS PTY LTD, priority 2017, dated 2022)", "key": {"B16-OVA cells": {"test_system": "B16-OVA cells", "assay": "Calreticulin externalization assay (flow cytometry)", "assay_type": "cell-based, mouse", "settings": "within 60 minutes of treatment", "method": "(§1) Calreticulin externalization was determined as previously detailed (Gomez-Cadena et al. 2016). Briefly, cells (A431, MM649, B16-OVA) cultured in complete medium at 37° C., 5% CO2 were detached via trypsinisation, centrifuged at 1,200 rpm and washed ×2 with fresh medium. After an additional round of centrifugation, the resultant cell pellet was resuspended at a concentration of 1×10^6 cells/ml, after which epoxytigliane was added to a final concentration of 500 or 300 μM. Ethanol only controls were also performed. Cell suspensions were incubated at 37° C., 5% CO2 and at the indicated timepoints, 200 μl of sample was removed and incubated with LIVE/DEAD fixable far red stain for 5 mins on ice. Following this, cells were pelleted at 1,200 rpm for 4 mins and washed ×1 with PBS. 500 μl of PBS, 0.25% formaldehyde was then added to each pellet to perform a light fixation without compromising plasma membrane integrity. […]\n(§2) Samples were gated by FSC-H v FSC-A first to identify single cells, after which the LIVE/DEAD stain (Ex: 640 nm, Em: 670/14) negative (intact cell) population was analysed for green fluorescence (Ex: 488 nm, Em: 530/30; calreticulin externalization). Mean fluorescence intensity values were subsequently determined and graphed versus time."}, "A431 cells [1]": {"test_system": "A431 cells", "assay": "Lactate dehydrogenase (LDH) release assay", "assay_type": "cell-based, human", "settings": "300 μM and 500 μM", "method": "(§3) A431 (human epidermoid carcinoma), MM649 (human melanoma), B16-OVA (B16-F10 mouse melanoma cell line stably transfected with chicken ovalbumin), MM415 (human melanoma) and FaDu (human hypopharyngeal carcinoma) cells were cultured in RPMI-1640, 10% FCS (complete medium) at 37° C., 5% CO2 in a humidified incubator. All cell lines used in this study were confirmed as mycoplasma negative using MycoAlert (Lonza). STR profiling was also performed to confirm the identity of the human cell lines used.\n(§4) Measuring the release of LDH is a well-recognised assay to assess plasma membrane permeabilisation and detect cell death by necrosis (Chan et al. 2013). Three cell lines (A431, MM649 and B16-OVA) were used in these assays. Cells were plated at a density of 10,000 cells per well into clear 96-well plates (Corning, #3595; 100 μl of complete media) and the resultant plates incubated overnight as previously detailed. The following day, media was aspirated from each well and 50 μl of fresh medium was inserted. Stock solutions of Compound 1 were diluted to 2× final assay concentrations (1 mM and 600 μM) and 50 μl of these dilutions added to the required wells. […] OD490 nm and OD690 nm readings were recorded for each sample using a Hybrid Synergy H4 plate reader. Absorbance readings from drug treated samples were normalized to detergent treated controls to determine the % LDH release per well."}, "MM649 cells [2]": {"test_system": "MM649 cells", "assay": "Lactate dehydrogenase (LDH) release assay", "assay_type": "cell-based, human", "settings": "300 μM and 500 μM", "method": "as §3, §4"}, "A431 cells [3]": {"test_system": "A431 cells", "assay": "Calreticulin externalization assay (flow cytometry)", "assay_type": "cell-based, human", "settings": "within 60 minutes of treatment", "method": "as §1, §2"}, "MM649 cells [4]": {"test_system": "MM649 cells", "assay": "Calreticulin externalization assay (flow cytometry)", "assay_type": "cell-based, human", "settings": "within 60 minutes of treatment", "method": "as §1, §2"}, "A431 cells [5]": {"test_system": "A431 cells", "assay": "HMGB1 release assay (ELISA)", "assay_type": "cell-based, human", "settings": "within 120 minutes", "method": "as §3, with “melanoma) and” for “melanoma),”, “ovalbumin)” for “ovalbumin), MM415 (human melanoma) and FaDu (human hypopharyngeal carcinoma) cells”, “incubator. BMDCs were cultured in R10 media (RPMI, 10% FCS, 2 mM glutamine, 50 μM beta-mercaptoethanol, Pen/Strep).” for “incubator.”\n(§5) Cell lines (A431, MM649 and B16-OVA) were plated into T75 cm^2 flasks (Nunc) in 10 ml of complete media and cultured at 37° C., 5% CO2 until they reached 90% confluency. Compounds 1, 2, 3 and 4 were diluted in 5 ml of identical media to a final concentration of 500 and 300 μM and then administered to the cells. Several flasks were prepared such that a kinetic curve of HMGB1 release in response to drug treatment could be established. Ethanol only controls were also generated. At the required timepoint, media was removed from the flask into a 10 ml polypropylene tube that was placed on ice for 5 mins. […] OD450 nm values were determined using a Hybrid Synergy H4 plate reader (BioTek). Absorbance values from drug treated samples were normalized to vehicle treated samples to determine the fold increase in HMGB1 release in response to epoxytigliane treatment."}, "MM649 cells [6]": {"test_system": "MM649 cells", "assay": "HMGB1 release assay (ELISA)", "assay_type": "cell-based, human", "settings": "within 120 minutes", "method": "as §3, with “melanoma) and” for “melanoma),”, “ovalbumin)” for “ovalbumin), MM415 (human melanoma) and FaDu (human hypopharyngeal carcinoma) cells”, “incubator. BMDCs were cultured in R10 media (RPMI, 10% FCS, 2 mM glutamine, 50 μM beta-mercaptoethanol, Pen/Strep).” for “incubator.”\nas §5"}}, "data": [{"smiles": "C/C=C(\\C)C(=O)O[C@@H]1[C@@H](C)[C@@]2(O)[C@H]([C@@H]3C(C)(C)[C@]13OC(=O)[C@@H](C)CC)[C@@H]1O[C@]1(CO)[C@@H](O)[C@]1(O)C(=O)C(C)=C[C@H]12", "note": "[Compound 1, 12-tigloyl-13-(2-methylbutanoyl)-6,7-epoxy-4,5,9,12,13,20-hexahydroxy-1-tiglien-3-one]", "values": [{"measurement": "calreticulin externalisation (mean fluorescence intensity)", "setting": "B16-OVA cells", "result": "significant increases in mean fluorescence intensity"}, {"measurement": "LDH release compared to the controls", "setting": "A431 cells [1]", "result": "significant release of LDH"}, {"measurement": "LDH release compared to the controls", "setting": "MM649 cells [2]", "result": "significant release of LDH"}, {"measurement": "calreticulin externalisation (mean fluorescence intensity)", "setting": "A431 cells [3]", "result": "significant increases in mean fluorescence intensity"}, {"measurement": "calreticulin externalisation (mean fluorescence intensity)", "setting": "MM649 cells [4]", "result": "significant increases in mean fluorescence intensity"}, {"measurement": "increase in HMBG1 release, normalised to vehicle treated cells", "setting": "A431 cells [5]", "result": "up to 40%"}, {"measurement": "increase in HMBG1 release, normalised to vehicle treated cells", "setting": "MM649 cells [6]", "result": "up to 40%"}]}]}
